Results from US9416181B2, “Compositions for cell culture and methods of using the same” (AbbVie Inc., priority 2013, dated 2016).
Entries after “also recorded” stand apart in the source; their conditions may differ.

Legend:
Assay type in all cases: cell-based, Chinese Hamster
[1] = system: Cell Line 1 (CHO) expressing Antibody 1; test: Cell culture performance (cell growth, viability, titer), Cell Line 1 shake flask fed-batch culture
Experimental: (§1) A recombinant Chinese Hamster Ovary (CHO) cell line (Cell Line 1) expressing a humanized monoclonal antibody (Antibody 1) was evaluated in 2 different cultures vessels (shaker flasks and 3 L laboratory-scale bioreactors). The cell line was of CHO DUX-B11 origin based on a DHFR (dihydrofolate reductase) expression system and cultured in a chemically defined basal media, and fed periodically with a chemically-defined feed media (CDFM). The media utilized throughout all of the experiments were chemically-defined, and both animal-component free, and protein-free. Each of the respective media were supplemented as needed with selected bioflavonoids to evaluate for their potential impact on the resulting acidic species profile. In preparation of the cultures, the cell lines were serially expanded through separate seed train inoculums to generate enough cells for inoculation. Process conditions utilized during the cultures were slightly different depending on the culture scale, but similar within each scale to the respective non-bioflavonoid supplemented control conditions. All bioflavonoids utilized were purchased from Sigma-Aldrich (St. Louis, Mo.).
(§2) Viable cell density (VCD) and cell viability values were measured through trypan blue exclusion via Cedex automated cell counters (Roche Applied Science, Indianapolis, Ind.), glucose and lactate values were measured with a ABL-805 (Radiometer Medical, Denmark) blood gas analyzer. Offline pH, dissolved oxygen (DO), and pCO2 measurements were performed as needed with an ABL-805 (Radiometer Medical, Denmark) blood gas analyzer. Osmolality was measured as needed on a Multi-Osmette 2430 osmometer (Precision Systems, Natick, Mass.).
(§3) Antibody titers were measured from crude cell culture harvests on a Poros A™ (Life Technologies, Carlsbad, Calif.) affinity column using an HPLC system operating with a low pH, step elution gradient with detection at 280 nm. Absolute concentrations were assigned with respect to reference standard calibration curves.
In this Example, EGCG was added into the feed (cell culture medium) at the concentration range of 5 mg/L (low), 20 mg/L (mid) and 50 mg/L (high) in a shaker experiment to determine the impact of EGCG on product quality of a humanized monoclonal antibody (Antibody 1). Detailed cell culture conditions are as described in Table 1.
However, it was not clear whether or not additional bioflavonoids would also have the same effects. To evaluate the impact of alternative bioflavonoids, fed-batch shake flask cultures were initiated with CDFM supplemented with 3 different concentrations of genistein, rutin, and naringin, in addition to EGCG. Cell growth, viability, as well as titers and acidic species variants were measured.
To evaluate the impact of other bioflavonoids, fed-batch shake flask cultures were initiated with CDFM supplemented with multiple concentrations of rutin. Cell growth, viability, as well as titers and acidic species variants were measured and shown in FIGS. 14 and 15, respectively.

[2] = system: Cell Line 1 (CHO) expressing Antibody 1; test: Cell culture performance (cell growth, viability, titer), Cell Line 1 3 L bioreactor fed-batch culture
Experimental: as §1, §2, §3
In the next experiment, lab-scale bioreactors were used to (1) confirm the shaker experiment results and (2) to determine whether higher concentration range of EGCG is suitable for supplementing into cell culture. EGCG was added to the feed of the batch culture at the concentrations of 20 mg/L (mid), 50 mg/L (high) and 125 mg/L (high+) and 250 mg/L (high++) in this reactor experiment.
Cell Line 1 was evaluated in larger-scale feed batch cultures with the feed media supplemented with various bioflavonoids. […] By contrast, cell growth performance was slightly different for the 0.1 g/L EGCG supplemented condition. […] However, the cell viability remained high at 0.1 g/L EGCG. All cultures were successfully harvested on Day 15 post-inoculation. The harvest titers measured from the evaluated cultures were similar.
Cell Line 1 was also evaluated in laboratory-scale fedbatch cultures with the feed media supplemented with various bioflavonoids. […] Cell growth performance was slightly different however with the 0.1 g/L EGCG supplemented condition. […] All cultures were able to be successfully harvested on Day 15 post-inoculation.

[3] = system: Cell Line 2 (CHO) expressing Antibody 2; test: Acidic species variants (WCX-10) of Antibody 2, Cell Line 2 lab-scale bioreactor culture; details: 0.1 g/L
Experimental: Four different recombinant Chinese Hamster Ovary (CHO) cell lines expressing four different recombinant glycoproteins were evaluated in either shaker flask culture, or 3 L laboratory scale bioreactors. Cell Line 1 was genetically engineered to express Antibody 1, Cell Line 2 was genetically engineered to express Antibody 2, Cell Line 3 was genetically engineered to express dual variable domain immunoglobulin 1 (DVD1) and Cell Line 4 was genetically engineered to express dual variable domain immunoglobulin 2 (DVD2).
Charge Heterogeneity via Weak Cation Exchange Chromatography-Samples were analyzed using an HPLC system equipped with a ProPac WCX-10 analytical column (Thermo Scientific, Sunnyvale, Calif.). Approximately 100 μg of sample was loaded in 6% Buffer B (10 mM sodium phosphate, 500 mM NaCl, pH 5.5) and 94% Buffer A (10 mM sodium phosphate, pH 7.5). The column was run at a flow rate of 1.0 mL/min. The protein was eluted from the column by increasing the buffer B composition from 6% to 16% over 20 minutes. The protein peaks were measured using UV absorbance at 280 nm as the peaks eluted from the column. The column was regenerated using 100% buffer B followed be a re-equilibration period using initial condition before the injection of the next sample. […]

[4] = concentrations above 0.1 g/L in CDFM, shake flask

## O=C(O[C@@H]1Cc2c(O)cc(O)cc2O[C@@H]1c1cc(O)c(O)c(O)c1)c1cc(O)c(O)c(O)c1 [EGCG, epigallocatechin gallate]
[1]; 0.1 g/L in CDFM, shake flask
  cell growth vs control: significantly lower than that of the control culture
[1]; 0.1 g/L in CDFM, shake flask, cultures proceeded until Day 12
  cell viability vs control: comparable to the control
[1]; 5, 20 and 50 mg/L in feed, shaker
  impact on cell culture performance (cell growth, viability, titer): no impact on cell culture performance
[1]; [4]
  cell growth: adversely impacted
  culture duration reached before viability became too low: 8 days
[1]; higher levels of supplement, shake flask, Day 12 harvest
  harvest titer: decreased titer
[2]; 0.05 g/L in CDFM, bioreactor, Day 8
  peak viable cell density: approximately 12×10^6 cells/mL
[2]; 0.05 g/L in CDFM, bioreactor, Day 15 harvest
  harvest titer vs control: outperforming the control condition by a nominal amount; also recorded: outperformed the control condition by a nominal amount
[2]; 0.1 g/L in CDFM, bioreactor
  cell growth profile vs unsupplemented control: lower than the unsupplemented control culture
  cell viability: remained high
[2]; 250 mg/L in feed, bioreactor
  impact on cell culture performance: reduction in early cell culture viability and titer reduction
[2]; 20, 50 and 125 mg/L in 1.5×JCL5 feed media, bioreactor
  impact on cell culture performance (cell growth, viability, titer): no impact on cell culture performance
[2]; Cell Line 1
  concentration (turning point) at which peak viable cell density began to drop lower than unsupplemented control: 125 µg/mL
[3]
  relative reduction of total acidic variants content vs unsupplemented control: 29%-36%
